These are literature values, as cited in patent publication US20110195928A1, “Administration of Copper to an Animal” (priority 2001, published 2011).

The conditions of this series: general statement of the description.

As for copper edtate [edtates], the Solubility in water result is “insoluble”.
